Reference: US7851505B2, “Thiotungstate analogues and uses thereof” (priority 2003, dated 2010)
“And” between values parts separate entries of the source, which are not always exact repeats. Identical values can stand only once. Like-named read-outs stand apart in the source and are kept apart here.

How the values were obtained:
[1] = Moisture stability of tetrathiotungstate salts; format: physicochemical
[2] = Copper-binding ability: inhibition of cysteine autooxidation; format: biochemical; settings: 100 μM Cys, 100 μM coumarin-3-carboxylic acid, 100 μM CuSO4
Method: The copper-binding ability of tetrathiotungstate salts was determined according to the ability of tetrathiotungstate salts to inhibit cysteine autooxidation as reported in Table 2 below.

angiogenesis = assay: Matrigel plug assay (inhibition of angiogenesis); format: in vivo, athymic nude mice; settings: FIG. 1
Method: This assay is performed essentially as described by Passaniti et al., Lab Invest. 1992, 67:519-528. Ice-cold Matrigel® (e.g., 500 μL) (Collaborative Biomedical Products, Inc., Bedford, Mass.) is mixed with heparin (e.g., 50 μg/ml), FGF-2 (e.g., 400 ng/ml) and the compound to be tested. In some assays, bFGF may be substituted with tumor cells as the angiogenic stimulus. The Matrigel® mixture is injected subcutaneously into 4-8 week-old athymic nude mice at sites near the abdominal midline, preferably 3 injections per mouse. The injected Matrigel®b forms a palpable solid gel. […] Hemoglobin (Hb) levels are determined using Drabkin's solution (e.g., obtained from Sigma) according to the manufacturers' instructions. […] The amount of fluorescence in the dispersed plug which is determined fluorimetrically serves as a measure of angiogenesis in the plug. […]
Ammonium tetrathiotungstate was assayed in the Matrigel® plug assay as described in Section 5.4.7, supra. Two positive controls were used with positive control 1 measured five days after implantation when treatment began and […] measured five days after implantation when treatment ended. Two negative controls were used with negative control 1 measured five days after implantation when treatment began and […] measured five days after implantation when treatment ended.

[3] = room temperature, 95% relative humidity, two weeks, purity by absorbance, * = partially soluble, ‡ = average of 2 data points

C[N+](C)(C)CCO.C[N+](C)(C)CCO.[S]=[Mo](=[S])([S-])[S-] [Tetrathiomolybdate, bis (choline), reference compound]
% degradation [1]: 36 ± 2%

[NH4+].[NH4+].[SH-].[SH-].[S]=[Mo]=[S] [Tetrathiomolybdate, bis(ammonium), reference compound]
% inhibition ([2]; inhibitor concentration 1 μM): 68.48% | % inhibition ([2]; inhibitor concentration 10 μM): 87.71% and 76.69% | % inhibition ([2]; inhibitor concentration 50 μM): 94.24%

C[N+]1(C)CCCC1.C[N+]1(C)CCCC1.[S]=[W](=[S])([S-])[S-] [Tetrathiotungstate, bis(1,1-dimethylpyrrolidinium)]
% degradation [1, 3]: 0.04%

Cc1cc[n+](C)cc1.Cc1cc[n+](C)cc1.[S]=[W](=[S])([S-])[S-] [Tetrathiotungstate, bis(1,4-dimethylpyridinium)]
% inhibition ([2]; inhibitor concentration 50 μM): 89.98% and 89.66% | % degradation [1, 3]: 2.0%

C[n+]1ccccc1C=NO.C[n+]1ccccc1C=NO.[S]=[W](=[S])([S-])[S-] [Tetrathiotungstate, bis(2-hydroxyiminomethyl-1-methyl-pyridinium)]
% inhibition ([2]; inhibitor concentration 50 μM): 91.15% | % degradation [1, 3]: 5.6%

CC(=O)OC(C)C[N+](C)(C)C.CC(=O)OC(C)C[N+](C)(C)C.[S]=[W](=[S])([S-])[S-] (stereo not drawn) [Tetrathiotungstate, bis(acetyl-β-methylcholine)]
% inhibition ([2]; inhibitor concentration 50 μM): 90.40% | % degradation [1, 3]: 4.2%

CC(=O)OCC[N+](C)(C)C.CC(=O)OCC[N+](C)(C)C.[S]=[W](=[S])([S-])[S-] [Tetrathiotungstate, bis(acetylcholine)]
% inhibition ([2]; inhibitor concentration 50 μM): 90.36% | % degradation [1]: 2.4%

C[N+](C)(C)Cc1ccccc1.C[N+](C)(C)Cc1ccccc1.[S]=[W](=[S])([S-])[S-] [Tetrathiotungstate, bis(benzzyltrimethylammonium)]
% inhibition ([2]; inhibitor concentration 50 μM): 94.62% | % degradation [1, 3]: 0.41%

C[N+](C)(C)CCO.C[N+](C)(C)CCO.[S]=[W](=[S])([S-])[S-] [Tetrathiotungstate, bis(choline)]
% inhibition ([2]; inhibitor concentration 50 μM): 92.54% and 91.99% | % degradation [1]: 3.0%

CCn1cc[n+](C)c1.CCn1cc[n+](C)c1.[S]=[W](=[S])([S-])[S-] [Tetrathiotungstate, bis(l-ethyl-3-methyl-1H-imidazolium)]
% inhibition ([2]; inhibitor concentration 50 μM): 91.16% | % degradation [1, 3]: 1.3%

CC[N+](CC)(CC)c1ccccc1.CC[N+](CC)(CC)c1ccccc1.[S]=[W](=[S])([S-])[S-] [Tetrathiotungstate, bis(triethylphenyl ammonium)]
% inhibition ([2]; inhibitor concentration 50 μM): 91.32% | % degradation [1, 3]: −0.12%

C[N+](C)(C)c1ccccc1.C[N+](C)(C)c1ccccc1.[S]=[W](=[S])([S-])[S-] [Tetrathiotungstate, bis(trimethylphenylammonium)]
% inhibition ([2]; inhibitor concentration 50 μM): 91.53% | % degradation [1, 3]: −0.46%

C[N+](C)(C)CCOC(=O)CCCCCCC(=O)OCC[N+](C)(C)C.[S]=[W](=[S])([S-])[S-] [Tetrathiotungstate, suberyldicholine]
% inhibition ([2]; inhibitor concentration 1 μM): 67.74% | % inhibition ([2]; inhibitor concentration 10 μM): 77.83% | % degradation [1, 3]: 18.4* %

NCCNCCNCCN [trientine, reference compound]
% inhibition ([2]; inhibitor concentration 1 μM): 0.00% | % inhibition ([2]; inhibitor concentration 50 μM): 39.71%

Tetrathiotungstate, (succinylcholine)
% inhibition ([2]; inhibitor concentration 1 μM): 66.06% | % inhibition ([2]; inhibitor concentration 10 μM): 81.38% | % degradation [1, 3]: 23.3* %

Tetrathiotungstate, bis(ammonium) [reference compound]
inhibition of angiogenesis (angiogenesis): about 34% | % inhibition ([2]; inhibitor concentration 50 μM): 95.94% | % degradation [1, 3]: −0.46%

Tetrathiotungstate, butane-1,4-bis(trimethylammonium)
% inhibition ([2]; inhibitor concentration 10 μM): 87.32% | % inhibition ([2]; inhibitor concentration 50 μM): 91.75%

Tetrathiotungstate, ethylenebis(trimethylammonium)
% inhibition ([2]; inhibitor concentration 10 μM): 84.66% | % inhibition ([2]; inhibitor concentration 50 μM): 89.60% | % degradation [1, 3]: 8.6* %

Tetrathiotungstate, pentane-1,5-bis(trimethylammonium)
% inhibition ([2]; inhibitor concentration 50 μM): 90.69%

Tetrathiotungstate, propane-1,3-bis(trimethylammonium)
% inhibition ([2]; inhibitor concentration 10 μM): 85.53% | % inhibition ([2]; inhibitor concentration 50 μM): 92.95%
